According to ChEMBL document CHEMBL1201862, “PubChem BioAssay data set” (2004):
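Assay format: 96-well plates, 48-hour exposure. The concentration for 50% growth inhibition is given as GI50.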 Active and inactive are the calls of the source. Cut-off read from the data, not from the text of the source: active = GI50 up to about 1.1 µM and inactive = higher.

Tests used:
Assay in all cases: NCI anticancer screen, dose series, 48 h
[1] = system: OVCAR-3
[2] = system: CCRF-CEM
[3] = system: HL-60
[4] = system: UACC-62
[5] = system: MDA-MB-231
[6] = system: SF-295
[7] = system: SNB-19
[8] = system: NCI-H522
[9] = system: K562
[10] = system: U-251
[11] = system: M14
[12] = system: SNB-75
[13] = system: MOLT-4
[14] = system: T47D
[15] = system: Malme-3M
[16] = system: SK-MEL-2
[17] = system: PC-3
[18] = system: SN12C
[19] = system: BT-549
[20] = system: UACC-257
[21] = system: NCI/ADR-RES
[22] = system: EKVX
[23] = system: UO-31
[24] = system: COLO 205
[25] = system: HCT-15
[26] = system: MCF7
[27] = system: SW-620
[28] = system: NCI-H23
[29] = system: A498
[30] = system: KM12
[31] = system: NCI-H226
[32] = system: OVCAR-4
[33] = system: HCC 2998
[34] = system: IGROV-1
[35] = system: CAKI-1
[36] = system: MDA-MB-435
[37] = system: SK-OV-3
[38] = system: ACHN
[39] = system: SK-MEL-28
[40] = system: SR
[41] = system: SF-268
[42] = system: NCI-H460
[43] = system: HT-29
[44] = system: RPMI-8226
[45] = system: RXF 393
[46] = system: OVCAR-8
[47] = system: DU-145
[48] = system: OVCAR-5
[49] = system: A549
[50] = system: HOP-92
[51] = system: SF-539
[52] = system: HOP-62
[53] = system: 786-0
[54] = system: HCT-116
[55] = system: SK-MEL-5
[56] = system: TK-10
[57] = system: LOX IMVI
[58] = system: Hs-578T
[59] = system: MDA-N

CCOC1(OCC)N=C(N)C2(C#N)C3(C(=O)N(C(C)C)N=C3C)C12C#N (centres undefined)
GI50 [1]: 44.3 µM (inactive) | GI50 [2]: 38.5 µM (inactive) | GI50 [3]: 0.893 µM (active) | GI50 [4]: > 100 µM (inactive) | GI50 [5]: > 100 µM (inactive) | GI50 [6]: > 100 µM (inactive) | GI50 [7]: > 100 µM (inactive) | GI50 [8]: 79.1 µM (inactive) | GI50 [9]: > 100 µM (inactive) | GI50 [10]: > 100 µM (inactive) | GI50 [11]: > 100 µM (inactive) | GI50 [12]: > 100 µM (inactive) | GI50 [13]: > 100 µM (inactive) | GI50 [14]: > 100 µM (inactive) | GI50 [15]: > 100 µM (inactive) | GI50 [16]: > 100 µM (inactive) | GI50 [17]: > 100 µM (inactive) | GI50 [18]: > 100 µM (inactive) | GI50 [19]: > 100 µM (inactive) | GI50 [20]: > 100 µM (inactive) | GI50 [21]: > 100 µM (inactive) | GI50 [22]: > 100 µM (inactive) | GI50 [23]: > 100 µM (inactive) | GI50 [24]: > 100 µM (inactive) | GI50 [25]: > 100 µM | GI50 [26]: > 100 µM (inactive) | GI50 [27]: > 100 µM (inactive) | GI50 [28]: > 100 µM (inactive) | GI50 [29]: > 100 µM (inactive) | GI50 [30]: > 100 µM (inactive) | GI50 [31]: > 100 µM (inactive) | GI50 [32]: > 100 µM (inactive) | GI50 [33]: > 100 µM (inactive) | GI50 [34]: > 100 µM (inactive) | GI50 [35]: > 100 µM (inactive) | GI50 [36]: > 100 µM (inactive) | GI50 [37]: > 100 µM (inactive) | GI50 [38]: > 100 µM (inactive) | GI50 [39]: > 100 µM (inactive) | GI50 [40]: 45.4 µM (inactive) | GI50 [41]: > 100 µM (inactive) | GI50 [42]: > 100 µM (inactive) | GI50 [43]: > 100 µM (inactive) | GI50 [44]: > 100 µM (inactive) | GI50 [45]: > 100 µM (inactive) | GI50 [46]: > 100 µM (inactive) | GI50 [47]: > 100 µM (inactive) | GI50 [48]: > 100 µM (inactive) | GI50 [49]: > 100 µM (inactive) | GI50 [50]: > 100 µM (inactive) | GI50 [51]: > 100 µM (inactive) | GI50 [52]: > 100 µM (inactive) | GI50 [53]: > 100 µM (inactive) | GI50 [54]: > 100 µM (inactive)

COc1cc(C(=O)OCCn2[nH]c(-c3ccc(Cl)cc3)nc2=S)cc(OC)c1OC
GI50 [1]: 51.3 µM (inactive) | GI50 [2]: 33 µM (inactive) | GI50 [3]: 38.9 µM (inactive) | GI50 [4]: > 100 µM (inactive) | GI50 [5]: > 100 µM (inactive) | GI50 [6]: 44.7 µM (inactive) | GI50 [7]: > 100 µM (inactive) | GI50 [8]: 27.7 µM (inactive) | GI50 [9]: 47.8 µM (inactive) | GI50 [10]: 83.8 µM (inactive) | GI50 [11]: 38.3 µM (inactive) | GI50 [13]: 22.9 µM (inactive) | GI50 [55]: 48.2 µM (inactive) | GI50 [15]: 45.5 µM (inactive) | GI50 [16]: > 100 µM (inactive) | GI50 [17]: > 100 µM (inactive) | GI50 [18]: 91.8 µM (inactive) | GI50 [19]: 31.3 µM (inactive) | GI50 [20]: 44.1 µM (inactive) | GI50 [21]: 57 µM (inactive) | GI50 [22]: 91.6 µM (inactive) | GI50 [56]: 54.3 µM (inactive) | GI50 [23]: 1.3 µM (inactive) | GI50 [24]: > 100 µM (inactive) | GI50 [25]: 36 µM | GI50 [57]: 72.4 µM (inactive) | GI50 [26]: > 100 µM (inactive) | GI50 [27]: > 100 µM (inactive) | GI50 [28]: 49.1 µM (inactive) | GI50 [29]: > 100 µM (inactive) | GI50 [30]: > 100 µM (inactive) | GI50 [31]: 58.7 µM (inactive) | GI50 [32]: 95.5 µM (inactive) | GI50 [33]: 56.4 µM (inactive) | GI50 [35]: 37.7 µM (inactive) | GI50 [36]: 51.1 µM (inactive) | GI50 [37]: > 100 µM (inactive) | GI50 [38]: > 100 µM (inactive) | GI50 [58]: 47.8 µM (inactive) | GI50 [39]: 42.7 µM (inactive) | GI50 [40]: 37.8 µM (inactive) | GI50 [41]: 34.3 µM (inactive) | GI50 [42]: > 100 µM (inactive) | GI50 [43]: > 100 µM (inactive) | GI50 [45]: 1.33 µM (inactive) | GI50 [46]: 90.8 µM (inactive) | GI50 [47]: 23.6 µM (inactive) | GI50 [48]: > 100 µM (inactive) | GI50 [49]: 98.6 µM (inactive) | GI50 [50]: 27.5 µM (inactive) | GI50 [51]: 60.8 µM (inactive) | GI50 [59]: 49 µM (inactive) | GI50 [52]: > 100 µM (inactive) | GI50 [53]: 62.8 µM (inactive) | GI50 [54]: > 100 µM (inactive)
